Results: ChEMBL document CHEMBL3272020, “Synthesis, antimalarial activity, and phototoxicity of some benzo(h)quinoline-4-methanols” (J Med Chem, 1976)
The source made the active and inactive calls. No cut-off for these calls is given here.

tested on: Mus musculus; assay: Phototoxicity in ip dosed mouse; type: organism-based; conditions: in vivo

SMILES | MED
C=C[C@H]1CN2CC[C@H]1C[C@H]2[C@H](O)c1ccnc2ccc(OC)cc12 [QUININE] | Not Active
CCCCN(CCCC)CC(O)c1cc(-c2cc(OC)c(OC)c(OC)c2)nc2c1cc(Cl)c1ccccc12.Cl (stereo not given) | 80 mg/kg
CCCCN(CCCC)CC(O)c1cc(C(C)(C)C)nc2c1cc(Cl)c1ccccc12.O=C(O)C(=O)O (stereo not given) | 100 mg/kg
CCCCN(CCCC)CC(O)c1cc(-c2ccc(C)cc2C)nc2c1ccc1ccccc12.Cl (stereo not given) | 300 mg/kg
CCCCN(CCCC)CC(O)c1cc(C(C)(C)C)nc2c1ccc1ccccc12.O=C(O)C(=O)O (stereo not given) | 100 mg/kg
CCCCN(CCCC)CC(O)c1c(C)cnc2c1cc(Cl)c1ccccc12.Cl (stereo not given) | 400 mg/kg
C=C[C@H]1CN2CC[C@H]1C[C@H]2[C@H](O)c1cc(-c2ccccc2)nc2ccc(OC)cc12 | 10 mg/kg
CCCCN(CCCC)CC(O)c1c(C)cnc2c1ccc1ccccc12.Cl (stereo not given) | Not Active
CCCCN(CCCC)CC(O)c1cc(C(C)(C)C)nc2c1cc(C)c1ccccc12.O=C(O)C(=O)O (stereo not given) | 300 mg/kg
CCCCN(CCCC)CC(O)c1c(C)cnc2c1ccc1cccc(Cl)c12.Cl (stereo not given) | 200 mg/kg

tested on: Plasmodium berghei; assay: Antimalarial activity against Plasmodium berghei infected in mouse assessed as change in mean survival time at 640 mg/kg, sc; type: functional; conditions: route subcutaneous

SMILES | MST
C=C[C@H]1CN2CC[C@H]1C[C@H]2[C@H](O)c1ccnc2ccc(OC)cc12 [QUININE] | 4.8 days
CCCCN(CCCC)CC(O)c1cc(-c2ccc(C)cc2C)nc2c1ccc1ccccc12.Cl (stereo not given) | 5.6 days
CCCCN(CCCC)CC(O)c1cc(C(C)(C)C)nc2c1ccc1ccccc12.O=C(O)C(=O)O (stereo not given) | 10.2 days
CCCCN(CCCC)CC(O)c1c(C)cnc2c1ccc1ccccc12.Cl (stereo not given) | 5.3 days
CCCCN(CCCC)CC(O)c1cc(C(C)(C)C)nc2c1cc(C)c1ccccc12.O=C(O)C(=O)O (stereo not given) | 5.9 days
CCCCN(CCCC)CC(O)c1c(C)cnc2c1ccc1cccc(Cl)c12.Cl (stereo not given) | 8.2 days

tested on: Plasmodium berghei; assay: Antimalarial activity against Plasmodium berghei infected in mouse assessed as change in mean survival time at 320 mg/kg, sc; type: functional; conditions: route subcutaneous

SMILES | MST
CCCCN(CCCC)CC(O)c1cc(-c2ccc(C)cc2C)nc2c1ccc1ccccc12.Cl (stereo not given) | 4.6 days
CCCCN(CCCC)CC(O)c1cc(C(C)(C)C)nc2c1ccc1ccccc12.O=C(O)C(=O)O (stereo not given) | 1.2 days
CCCCN(CCCC)CC(O)c1c(C)cnc2c1cc(Cl)c1ccccc12.Cl (stereo not given) | 12.9 days
CCCCN(CCCC)CC(O)c1c(C)cnc2c1ccc1ccccc12.Cl (stereo not given) | 2.9 days
CCCCN(CCCC)CC(O)c1cc(C(C)(C)C)nc2c1cc(C)c1ccccc12.O=C(O)C(=O)O (stereo not given) | 3.5 days
CCCCN(CCCC)CC(O)c1c(C)cnc2c1ccc1cccc(Cl)c12.Cl (stereo not given) | 6.2 days

tested on: Plasmodium berghei; assay: Antimalarial activity against Plasmodium berghei infected in mouse assessed as disease cure by measuring host survival for 60 days at 160 mg/kg, sc; type: functional, organism-based; parameters: dose 160 mg/kg; conditions: not given

SMILES | Activity
CCCCN(CCCC)CC(O)c1cc(-c2cc(OC)c(OC)c(OC)c2)nc2c1cc(Cl)c1ccccc12.Cl (stereo not given) | Active

tested on: Plasmodium berghei; assay: Antimalarial activity against Plasmodium berghei infected in mouse assessed as change in mean survival time at 160 mg/kg, sc; type: functional; conditions: route subcutaneous

SMILES | MST
C=C[C@H]1CN2CC[C@H]1C[C@H]2[C@H](O)c1ccnc2ccc(OC)cc12 [QUININE] | 0.6 days
CCCCN(CCCC)CC(O)c1cc(C(C)(C)C)nc2c1cc(Cl)c1ccccc12.O=C(O)C(=O)O (stereo not given) | 2.2 days
CCCCN(CCCC)CC(O)c1cc(-c2ccc(C)cc2C)nc2c1ccc1ccccc12.Cl (stereo not given) | 4.2 days
CCCCN(CCCC)CC(O)c1c(C)cnc2c1cc(Cl)c1ccccc12.Cl (stereo not given) | 6.9 days
C=C[C@H]1CN2CC[C@H]1C[C@H]2[C@H](O)c1cc(-c2ccccc2)nc2ccc(OC)cc12 | 5.8 days
CCCCN(CCCC)CC(O)c1c(C)cnc2c1ccc1ccccc12.Cl (stereo not given) | 0.9 days
CCCCN(CCCC)CC(O)c1cc(C(C)(C)C)nc2c1cc(C)c1ccccc12.O=C(O)C(=O)O (stereo not given) | 2.7 days
CCCCN(CCCC)CC(O)c1c(C)cnc2c1ccc1cccc(Cl)c12.Cl (stereo not given) | 1.2 days
CCCCN(CCCC)CC(O)c1cc(-c2ccc(C)cc2C)nc2c1cc(Cl)c1ccccc12.Cl (stereo not given) | 9 days

tested on: Plasmodium berghei; assay: Antimalarial activity against Plasmodium berghei infected in mouse assessed as disease cure by measuring host survival for 60 days at 640 mg/kg, sc; type: functional, organism-based; parameters: dose 640 mg/kg; conditions: not given

SMILES | Activity
CCCCN(CCCC)CC(O)c1cc(C(C)(C)C)nc2c1cc(Cl)c1ccccc12.O=C(O)C(=O)O (stereo not given) | Active
CCCCN(CCCC)CC(O)c1c(C)cnc2c1cc(Cl)c1ccccc12.Cl (stereo not given) | Active
C=C[C@H]1CN2CC[C@H]1C[C@H]2[C@H](O)c1cc(-c2ccccc2)nc2ccc(OC)cc12 | Active
CCCCN(CCCC)CC(O)c1cc(-c2ccc(C)cc2C)nc2c1cc(Cl)c1ccccc12.Cl (stereo not given) | Active

tested on: Plasmodium berghei; assay: Antimalarial activity against Plasmodium berghei infected in mouse assessed as disease cure by measuring host survival for 60 days at 320 mg/kg, sc; type: functional, organism-based; parameters: dose 320 mg/kg; conditions: not given

SMILES | Activity
CCCCN(CCCC)CC(O)c1cc(-c2cc(OC)c(OC)c(OC)c2)nc2c1cc(Cl)c1ccccc12.Cl (stereo not given) | Active
CCCCN(CCCC)CC(O)c1cc(C(C)(C)C)nc2c1cc(Cl)c1ccccc12.O=C(O)C(=O)O (stereo not given) | Active
CCCCN(CCCC)CC(O)c1cc(-c2ccc(C)cc2C)nc2c1cc(Cl)c1ccccc12.Cl (stereo not given) | Active

tested on: Mus musculus; assay: Toxicity in mouse infected with Plasmodium berghei assessed as animal death at 640 mg/kg, sc; type: organism-based; parameters: dose 640 mg/kg, route subcutaneous; conditions: in vivo

SMILES | Activity
C=C[C@H]1CN2CC[C@H]1C[C@H]2[C@H](O)c1ccnc2ccc(OC)cc12 [QUININE] | Non-toxic
CCCCN(CCCC)CC(O)c1cc(C(C)(C)C)nc2c1cc(Cl)c1ccccc12.O=C(O)C(=O)O (stereo not given) | Non-toxic
CCCCN(CCCC)CC(O)c1cc(-c2ccc(C)cc2C)nc2c1ccc1ccccc12.Cl (stereo not given) | Non-toxic
CCCCN(CCCC)CC(O)c1cc(C(C)(C)C)nc2c1ccc1ccccc12.O=C(O)C(=O)O (stereo not given) | Toxic
CCCCN(CCCC)CC(O)c1c(C)cnc2c1cc(Cl)c1ccccc12.Cl (stereo not given) | Non-toxic
C=C[C@H]1CN2CC[C@H]1C[C@H]2[C@H](O)c1cc(-c2ccccc2)nc2ccc(OC)cc12 | Non-toxic
CCCCN(CCCC)CC(O)c1c(C)cnc2c1ccc1ccccc12.Cl (stereo not given) | Non-toxic
CCCCN(CCCC)CC(O)c1cc(C(C)(C)C)nc2c1cc(C)c1ccccc12.O=C(O)C(=O)O (stereo not given) | Non-toxic
CCCCN(CCCC)CC(O)c1c(C)cnc2c1ccc1cccc(Cl)c12.Cl (stereo not given) | Non-toxic
CCCCN(CCCC)CC(O)c1cc(-c2ccc(C)cc2C)nc2c1cc(Cl)c1ccccc12.Cl (stereo not given) | Non-toxic

tested on: Mus musculus; assay: Toxicity in mouse infected with Plasmodium berghei assessed as animal death at 320 mg/kg, sc; type: organism-based; parameters: dose 320 mg/kg, route subcutaneous; conditions: in vivo

SMILES | Activity
CCCCN(CCCC)CC(O)c1cc(-c2cc(OC)c(OC)c(OC)c2)nc2c1cc(Cl)c1ccccc12.Cl (stereo not given) | Non-toxic
